According to patent US12187672B2, “1,2-diacylglycerol compound, preparation method therefor, and immunomodulator containing same as active ingredient” (ENZYCHEM LIFESCIENCES CORPORATION, priority 2018, dated 2025):
Values joined by “and” are separate entries in the source; they are usually repeats but may differ in a detail not shown here. Identical values can stand only once.

Columns and labels:
STAT3 = experiment: IL-6-induced STAT3 activity, SEAP expression in HEK-Blue IL-6 cells; format: cell-based; details: HEK-Blue IL-6 cells; for STAT3 activity_SEAP expression(%) (average ± deviation): sample 100 μg/ml 1 h, then IL-6 5 ng/ml 24 h, negative control = 100
Outline: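 HEK-Blue IL-6 reporter cells at 1×10^5 cells/ml in DMEM with 10% FBS were exposed to compound for 1 h, then IL-6 (5 ng/ml) for 24 h at 37 °C. STAT3-driven SEAP in supernatant was detected with Quanti-Blue (1:10, ~30 min, 37 °C) at 650 nm.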

STAT6 = experiment: IL-4-induced STAT6 activity, pGL4-STAT6 luciferase reporter in A549 cells; format: cell-based; details: sample 100 μg/ml 1 h
Outline: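 A549 cells transiently transfected with pGL4-STAT6 reporter (24 h), pretreated with compound 1 h, then stimulated with IL-4 (2 ng/ml or 10 ng/ml) for 20 h. Cells lysed and luciferase luminescence read as STAT6 activity.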

CXCL8 (IL-8) = CXCL8 (IL-8) expression reduction in Gemcitabine-treated THP-1 cells (ELISA); format: cell-based, human; details: THP-1 cells; for reduction of CXCL8 (IL-8) expression/secretion: Gemcitabine-treated, 100 μg/ml; for CXCL8 [IL-8] concentration (average ± deviation): sample 100 μg/ml 1 h, then Gemcitabine 2 μg/ml 24 h
Outline: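 Human THP-1 macrophage-like cells in RPMI/10% FBS, plated at 1×10^6 cells/ml, pretreated 1 h with compound, then stimulated with Gemcitabine (2 μg/ml) for 24 h at 37° C, 5% CO2. Secreted IL-8 in the supernatant was measured by sandwich ELISA, read at 450 nm.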

[1] = tested on: Aeruginosa K (PAK) of the genus Psuedomonas; experiment: Infection inhibition test in mouse model of lung infection with bacteria (CFU in BALF); format: in vivo, Balb/c mice; details: 250 mg/kg oral
Protocol: For getting mice model whose lung are infected with bacteria, 12-week old Balb/c male mice were purchased from Koatech Corporation (South Korea) and maintained in certain pathogen-free facilities under moderate temperature and lights cycles. For obtain bacteria to induce lung infection, Aeruginosa K (PAK) of the genus Psuedomonas was incubated in LB broth or LB agar plate overnight at 37° C., and then the culture solution was centrifuged at 13,000×g for 2 minutes to obtain a bacterial pellet. Thereafter, the bacterial pellet was suspended in phosphate buffered saline (PBS), and the optical density of the serial dilution was measured and plated on an agar plate, so that bacterial inoculum having a colony forming unit (CFU) was obtained. A bacterial inoculum solution for infection was prepared at a concentration of 1×10^5 CFU per 20 μl, and the prepared PAK bacterial inoculum (1×10^5 CFU per mouse in 20 μl PBS) was administered to a total of 8 12-week-old Balb/c mice by nasal injection. Four of the PAK-administered groups were orally administered the compound of the present invention (EC_A21) at 250 mg/kg, and PBS was administered to the control group. After 4 hours, samples of bronchoalveolar lavage fluid (BALF) from P. aeruginosa-infected mice were collected, and the collected BALF samples were diluted 1:1000 with PBS. The diluted samples were plated on LB agar and then incubated overnight at 37° C. CFU levels in BALF were confirmed by measuring the number of surviving bacteria by a plate count method. The results are shown in Table 8, FIG. 7 and FIG. 8 below.

[2] = then IL-4 (2 ng/ml) 20 h, Table 9
[3] = then IL-4 (10 ng/ml) 20 h, Table 10

SMILES	STAT6 activity_Luciferase activity (average ± deviation) (STAT6; [3])	CXCL8 [IL-8] concentration (average ± deviation) (CXCL8 (IL-8))	further results
CCCCC/C=C\C/C=C\CCCCCCCC(=O)OC(COC(C)=O)COC(=O)CCCCCCCCCCCCCCC (stereo not shown) [EC-18, 1-palmitoyl-2-linoleoyl-3-acetylglycerol, reference compound]	18878.0 ± 500.8	79.6 ± 6.0 pg/µL	decrease of STAT3 activity compared to the IL-6 cytokine-treated group (STAT3; 100 μg/ml): about 25%; STAT3 activity_SEAP expression(%) (average ± deviation) (STAT3): 173.0 ± 7.9%; STAT6 activity_Luciferase activity (average ± deviation) (STAT6; [2]): 462.5 ± 161.7; reduction of CXCL8 (IL-8) expression/secretion (CXCL8 (IL-8)): about 20%
CCCCC/C=C\C/C=C\CCCCCCCC(=O)OC(COC(=O)CCCCCCCCCCCCCCC)COC(C)C (stereo not shown) [EC_A21]	–	86.2 ± 0.7 pg/µL	STAT3 activity_SEAP expression(%) (average ± deviation) (STAT3): 224.1 ± 22.4%; STAT6 activity_Luciferase activity (average ± deviation) (STAT6; [2]): 880.0 ± 50.0; bacterial CFU in BALF, average ± deviation ([1]; PAK 1×10^5 CFU nasal, BALF after 4 hours, 4 Balb/c mice): 14.0 ± 6.0 10^3 CFU/ml; bacterial CFU in BALF, individual mouse ([1]; PAK 1×10^5 CFU nasal, BALF after 4 hours, Balb/c mice, 250 mg/kg): 8.0 10^3 CFU/ml and 19.0 10^3 CFU/ml and 20.0 10^3 CFU/ml and 14.0 10^3 CFU/ml; bacterial CFU in BALF versus PAK alone group (in words) ([1]; fourth hour after PAK administration): significantly lower than that of the PAK alone group; reduction of CXCL8 (IL-8) expression/secretion (CXCL8 (IL-8)): about 20%
CCCCC/C=C\C/C=C\CCCCCCCC(=O)OC(COC(=O)CC)COC(=O)CCCCCCCCCCCCCCC (stereo not shown) [EC_A78]	19208.7 ± 2129.6	108.5 ± 4.9 pg/µL	–
CCCCC/C=C\C/C=C\CCCCCCCC(=O)OC(COC(=O)CCCCCCCCCCCCCCC)COC(=O)C1CC1 (stereo not shown) [EC_A79]	20037.7 ± 786.0	108.7 ± 8.3 pg/µL	–
CCCCC/C=C\C/C=C\CCCCCCCC(=O)OC(COC(=O)CCCCCC)COC(=O)CCCCCCCCCCCCCCC (stereo not shown) [EC_A83]	18788.2 ± 2805.4	107.7 ± 3.9 pg/µL	–
CCCCC/C=C\C/C=C\CCCCCCCC(=O)OC(COC(=O)CCC)COC(=O)CCCCCCC (stereo not shown) [EC_A85]	19878.2 ± 4338.5	94.4 ± 3.4 pg/µL	–
CCCCC/C=C\C/C=C\CCCCCCCC(=O)OC(COC(=O)CCCC)COC(=O)CCCCCCC (stereo not shown) [EC_A86]	18158.0 ± 3182.4	99.2 ± 4.9 pg/µL	–
CCCCC/C=C\C/C=C\CCCCCCCC(=O)OC(COC(=O)CC)COC(=O)CCCCCCC (stereo not shown) [EC_A87]	17258.7 ± 3007.1	134.4 ± 10.7 pg/µL	–
CCCCC/C=C\C/C=C\CCCCCCCC(=O)OC(COC(=O)CCCCCCC)COC(=O)C(C)C (stereo not shown) [EC_A88]	17409.5 ± 1849.8	91.4 ± 3.4 pg/µL	–
CCCCCC=CCC=CCCCCCCCC(=O)OC(COC(=O)CCCCCCC)COC(=O)C(C)(C)C (stereo not shown) [EC_A89]	18635.5 ± 846.4	123.1 ± 0.0 pg/µL	–
CCCCC/C=C\C/C=C\CCCCCCCC(=O)OC(COC(=O)CC)COC(=O)CCCCCCCCCCC (stereo not shown) [EC_A91]	22036.0 ± 4089.4	96.1 ± 3.6 pg/µL	–
CCCCC/C=C\C/C=C\CCCCCCCC(=O)OC(COC(=O)CCC)COC(=O)CCCCCCCCCCC (stereo not shown) [EC_A92]	17237.2 ± 317.7	105.1 ± 0.2 pg/µL	–
CCCCC/C=C\C/C=C\CCCCCCCC(=O)OC(COC(=O)CCCC)COC(=O)CCCCCCCCCCC (stereo not shown) [EC_A93]	15562.5 ± 900.7	110.9 ± 0.0 pg/µL	–
CCCCC/C=C\C/C=C\CCCCCCCC(=O)OC(COC(=O)CCCCCCCCCCC)COC(=O)C(C)CC (stereo not shown) [EC_A96]	14593.2 ± 2168.7	103.7 ± 5.4 pg/µL	–
CCCCC/C=C\C/C=C\CCCCCCCC(=O)OC(COC(=O)CC)COC(=O)CCCCCCCCC (stereo not shown) [EC_A97]	16787.0 ± 4102.6	96.2 ± 0.2 pg/µL	–
CCCCC/C=C\C/C=C\CCCCCCCC(=O)OC(COC(=O)CCC)COC(=O)CCCCCCCCC (stereo not shown) [EC_A98]	14727.2 ± 129.2	105 ± 2.0 pg/µL	–
CCCCC/C=C\C/C=C\CCCCCCCC(=O)OC(COC(=O)CCCC)COC(=O)CCCCCCCCC (stereo not shown) [EC_A99]	17407.0 ± 1347.6	102.0 ± 19.3 pg/µL	–
CCCCC/C=C\C/C=C\CCCCCCCC(=O)OC(COC(=O)CCCCCCCCC)COC(=O)C(C)C (stereo not shown) [EC_A100]	14212.0 ± 1008.8	115.1 ± 3.9 pg/µL	–
CCCCC/C=C\C/C=C\CCCCCCCC(=O)OC(COC(=O)CCCCCCCCC)COC(=O)C(C)(C)C (stereo not shown) [EC_A101]	19438.7 ± 580.2	118.1 ± 2.8 pg/µL	–
CCCCC/C=C\C/C=C\CCCCCCCC(=O)OC(COC(=O)CCCCCCCCC)COC(=O)C(C)CC (stereo not shown) [EC_A102]	18719.2 ± 2558.5	102.5 ± 4.4 pg/µL	–
